Reference: US11332464B2, “Inhibitors of lysine gingipain” (priority 2014, dated 2022)
“And” between values parts separate entries of the source, which are not always exact repeats. Equal entries are not always repeated. “Also recorded” adds a separate entry of the source. Where two headings read alike, the source gives them in different places.

Assays:
[1] = molecular target: Kgp (Porphyromonas gingivalis, UniProt P72197); test: Lysine gingipain (Kgp) fluorogenic inhibition assay; format: biochemical
Description: The capacities of compounds of the present invention to inhibit the activity of lysine gingipain were measured in a fluorogenic assay similar to those described in Barret Biochemical Journal. 1980, 187(3), 909. The specific assay conditions were as follows. Buffer: pH=7.5, 100 mM Tris-HCl, 75 mM NaCl, 2.5 mM CaCl2, 10 mM cysteine, 1% DMSO after all additions. Protein: 0.1 nM Kgp, isolated from culture of Porphyromonas gingivalis, as described in Pike et al. J. Biol. Chem. 1994, 269(1), 406, and Potempa and Nguyen. Current Protocols in Protein Science. 2007, 21.20.1-21.20.27. Fluorogenic substrate: 10 uM Z-His-Glu-Lys-MCA. Time=90 minutes. Temperature=37° C. Each compound: 10 concentrations, starting at either 100 uM or 100 nM, with lower concentrations generated by serial 3-fold dilutions. By testing a range of concentrations for each compound, the concentration required to inhibit the activity of lysine gingipain by 50% (the “IC50”) was determined. Under the described assay conditions, signal-to-noise was excellent, and Z factor was greater than 0.6.

[2] = tested on: differentiated SH-SY5Y neuroblastoma cells; test: Gingipain-induced death of differentiated SH-SY5Y cells; format: cell-based; settings: 100 nM Kgp and/or RgpB for 24 hours
Description: SH-SY5Y neuroblastoma cells were cultured and differentiated in the presence of 5 uM retinoic acid based on established methods [Saberi S., et al. Cell Mol Neurobiol 2013. 33: 747-751]. Differentiation into neuronal cells was verified by observation of neurite outgrowth. The differentiated cells were exposed to 100 nM Kgp and/or RgpB for 24 hours, in the presence or absence of Kgp inhibitors. Results were recorded using a digital microscope camera (FIG. 1C, FIG. 2C). Gingipains are toxic to cells while COR compounds prevent the cytotoxicity.

[3] = tested on: SHSY5Y cells; test: P. gingivalis-induced toxicity in SHSY5Y cells; format: cell-based; settings: in vitro, compared to moxifloxacin
[4] = Kgp IC50 average, 0.1 nM Kgp, 10 uM Z-His-Glu-Lys-MCA, 90 minutes, 37° C.
[5] = read-out: Kgp IC50 average, 0.1 nM Kgp, 10 uM Z-His-Glu-Lys-MCA, 90 minutes, 37° C.

SMILES | IC50 [1, 4] | further results
CC(=O)N1CCOC(C(=O)N[C@@H](CCCCN)C(=O)c2nc3ccccc3s2)C1 (stereo partly drawn) [Compound 29, 4-acetyl-N-[(1S)-5-amino-1-(1,3-benzothiazole-2-carbonyl)pentyl]morpholine-2-carboxamide] | 10 to 25 nM | –
CC1(C(=O)N[C@@H](CCCCN)C(=O)c2nc3ccccc3s2)CCCCC1 [Compound 33, N-[(1S)-5-amino-1-(1,3-benzothiazole-2-carbonyl)pentyl]-1-methyl-cyclohexanecarboxamide] | 1 to 10 nM | –
CC(=O)N1CCC[C@H](C(=O)N[C@H](CCCCN)C(=O)c2nc3ccccc3s2)C1 [Compound 10, (3S)-1-acetyl-N-[(1R)-5-amino-1-(1,3-benzothiazole-2-carbonyl)pentyl]piperidine-3-carboxamide] | 10 to 25 nM | –
CC(=O)N1CCC[C@@H](C(=O)N[C@H](CCCCN)C(=O)c2nc3ccccc3s2)C1 [Compound 11, (3R)-1-acetyl-N-[(1R)-5-amino-1-(1,3-benzothiazole-2-carbonyl)pentyl]piperidine-3-carboxamide] | 1 to 10 nM | –
NCCCCC(NC(=O)[C@@H]1CCCN(C(=O)CCc2ccccc2)C1)C(=O)c1nc2ccccc2s1 (single isomer, unassigned) [Compound 15] | – | IC50 [1, 5]: 1 to 10 nM
NCCCC[C@H](NC(=O)C1CCCCO1)C(=O)c1nc2ccccc2s1 (single isomer, unassigned) [Compound 26] | – | IC50 [1, 5]: 25 to 50 nM
NCCCC[C@H](NC(=O)c1cccc(=O)[nH]1)C(=O)c1nc2ccccc2s1 [Compound 40, N-[(1S)-5-amino-1-(1,3-benzothiazole-2-carbonyl)pentyl]-6-oxo-1H-pyridine-2-carboxamide] | 25 to 50 nM | –
NCCCC[C@H](NC(=O)C1CCCCC1)C(=O)c1nc2ccccc2s1 [Compound 2, N-[(1S)-5-amino-1-(1,3-benzothiazole-2-carbonyl)pentyl]cyclohexanecarboxamide] | 1 to 10 nM and 10 to 25 nM | IC50 ([1]; Kgp IC50, figure legend): 1 to 10 nM; prevention of gingipain-induced death of differentiated SHSY-5Y cells [2]: effective at preventing cell death; also recorded: more effective
NCCCC[C@H](NC(=O)c1ccccn1)C(=O)c1nc2ccccc2s1 [Compound 12, N-[(1S)-5-amino-1-(1,3-benzothiazole-2-carbonyl)pentyl]pyridine-2-carboxamide] | 50 to 100 nM | –
NCCCCC(NC(=O)[C@@H]1CCCN(C(=O)CCc2ccccc2)C1)C(=O)c1nc2ccccc2s1 (single isomer, unassigned) [Compound 14] | 1 to 10 nM | –
NCCCC[C@H](NC(=O)c1cccnc1)C(=O)c1nc2ccccc2s1 [Compound 30, N-[(1S)-5-amino-1-(1,3-benzothiazole-2-carbonyl)pentyl]pyridine-3-carboxamide] | 25 to 50 nM | –
NCCCC[C@H](NC(=O)c1ccncc1)C(=O)c1nc2ccccc2s1 [Compound 13, N-[(1S)-5-amino-1-(1,3-benzothiazole-2-carbonyl)pentyl]pyridine-4-carboxamide] | 25 to 50 nM | –
NCCCC[C@H](NC(=O)C1CCCc2ccccc21)C(=O)c1nc2ccccc2s1 (stereo partly drawn) [Compound 31, N-[(1S)-5-amino-1-(1,3-benzothiazole-2-carbonyl)pentyl]tetralin-1-carboxamide] | 10 to 25 nM | –
NCCCC[C@H](NC(=O)c1nccs1)C(=O)c1nc2ccccc2s1 [Compound 39, N-[(1S)-5-amino-1-(1,3-benzothiazole-2-carbonyl)pentyl]thiazole-2-carboxamide] | 50 to 100 nM | –
NCCCC[C@H](NC(=O)C1CCCOC1)C(=O)c1nc2ccccc2s1 (single isomer, unassigned) [Compound 19] | – | IC50 [1, 5]: 10 to 25 nM
NCCCC[C@H](NC(=O)[C@@H]1CCCN(C(=O)CCc2ccccc2)C1)C(=O)c1nc2ccccc2s1 [Compound 4, (3R)—N-[(1S)-5-amino-1-(1,3-benzothiazole-2-carbonyl)pentyl]-1-(3-phenylpropanoyl)piperidine-3-carboxamide] | 1 to 10 nM | IC50 ([1]; Kgp IC50, figure legend): 1 to 10 nM; prevention of gingipain-induced death of differentiated SHSY-5Y cells [2]: prevents gingipain-induced death; prevention of gingipain-induced death of differentiated SHSY-5Y cells ([2]; listed as 2-(N—[N-(3-phenylpropanoyl)-(R)-nipecotinyl]-(R)-lysinyl)-benzothiazole): effective at preventing cell death
NCCCC[C@H](NC(=O)C1CCCC1)C(=O)c1nc2ccccc2s1 [Compound 24, N-[(1S)-5-amino-1-(1,3-benzothiazole-2-carbonyl)pentyl]cyclo-pentanecarboxamide] | 1 to 10 nM | –

SMILES | IC50 [1, 4] | further results
CC(=O)N1CCC[C@@H](C(=O)N[C@@H](CCCCN)C(=O)c2nc3ccccc3s2)C1 [Compound 9, (3R)-1-acetyl-N-[(1S)-5-amino-1-(1,3-benzothiazole-2-carbonyl)pentyl]piperidine-3-carboxamide] | 1 to 10 nM | –
NCCCC[C@H](NC(=O)C1CCCC1)C(=O)c1ccccn1 [Compound 44, N-[(1S)-5-amino-1-(pyridine-2-carbonyl)pentyl]cyclopentanecarboxamide] | > 250 nM | –
NCCCC[C@H](NC(=O)c1ccccc1C(F)(F)F)C(=O)c1nc2ccccc2s1 [Compound 7, N-[(1S)-5-amino-1-(1,3-benzothiazole-2-carbonyl)pentyl]-2-(trifluoromethyl)benzamide] | 25 to 50 nM | –
COC1(C(=O)N[C@@H](CCCCN)C(=O)c2nc3ccccc3s2)CCCCC1 [Compound 41, (S)—N-(6-amino-1-(benzo[d]thiazol-2-yl)-1-oxohexan-2-yl)-1-methoxycyclohexanecarboxamide] | 10 to 25 nM | –
CC(=O)N1CCC[C@H](C(=O)N[C@@H](CCCCN)C(=O)c2nc3ccccc3s2)C1 [Compound 8, (3S)-1-acetyl-N-[(1S)-5-amino-1-(1,3-benzothiazole-2-carbonyl)pentyl]piperidine-3-carboxamide] | 10 to 25 nM | –
NCCCC[C@H](NC(=O)C1CCCC1)C(=O)c1nccs1 [Compound 42, N-[(1S)-5-amino-1-(thiazole-2-carbonyl)pentyl]cyclopentanecarboxamide] | 50 to 100 nM | –
NCCCC[C@H](NC(=O)C1CCCCO1)C(=O)c1nc2ccccc2s1 (single isomer, unassigned) [Compound 25] | 25 to 50 nM | –
NCCCC[C@H](NC(=O)C1CCCC1)C(=O)COc1c(F)c(F)cc(F)c1F [Compound 43, N-[(1S)-5-amino-1-[2-(2,3,5,6-tetrafluorophenoxy)acetyl]pentyl]cyclo-pentanecarboxamide] | < 1 nM | Kgp IC50 (in words) ([1]; irreversible covalent inhibitor): sub-nanomolar; protection of SHSY5Y cells from P. gingivalis-induced toxicity [3]: protects SHSY5Y cells
NCCCC[C@H](NC(=O)C1CCCO1)C(=O)c1nc2ccccc2s1 (single isomer, unassigned) [Compound 35] | – | IC50 [1, 5]: 1 to 10 nM
NCCCC[C@H](NC(=O)C1CCc2ccccc2C1)C(=O)c1nc2ccccc2s1 (stereo partly drawn) [Compound 32, N-[(1S)-5-amino-1-(1,3-benzothiazole-2-carbonyl)pentyl]tetralin-2-carboxamide] | 1 to 10 nM | –
NCCCC[C@H](NC(=O)C1CCCO1)C(=O)c1nc2ccccc2s1 (single isomer, unassigned) [Compound 34] | 1 to 10 nM | –
NCCCC[C@H](NC(=O)C1CCOCC1)C(=O)c1nc2ccccc2s1 [Compound 22, N-[(1S)-5-amino-1-(1,3-benzothiazole-2-carbonyl)pentyl]tetrahydropyran-4-carboxamide] | 10 to 25 nM | –
NCCCC[C@H](NC(=O)C1CCCOC1)C(=O)c1nc2ccccc2s1 (single isomer, unassigned) [Compound 18] | 10 to 25 nM | –
NCCCC[C@H](NC(=O)c1ccccc1)C(=O)c1nc2ccccc2s1 [Compound 1, N-[(1S)-5-amino-1-(1,3-benzothiazole-2-carbonyl)pentyl]benzamide] | 50 to 100 nM and 25 to 50 nM | prevention of gingipain-induced death of differentiated SHSY-5Y cells [2]: effective at preventing cell death; also recorded: prevents gingipain-induced death
NCCCC[C@H](NC(=O)c1cncs1)C(=O)c1nc2ccccc2s1 [Compound 38, N-[(1S)-5-amino-1-(1,3-benzothiazole-2-carbonyl)pentyl]thiazole-5-carboxamide] | 10 to 25 nM | –
NCCCC[C@H](NC(=O)[C@H]1CCCN(C(=O)CCc2ccccc2)C1)C(=O)c1nc2ccccc2s1 [Compound 3, (3S)—N-[(1S)-5-amino-1-(1,3-benzothiazole-2-carbonyl)pentyl]-1-(3-phenylpropanoyl)piperidine-3-carboxamide] | 10 to 25 nM | IC50 ([1]; Kgp IC50, figure legend): 10 to 25 nM; prevention of gingipain-induced death of differentiated SHSY-5Y cells [2]: does not
NCCCC[C@H](NC(=O)OCc1ccccc1)C(=O)c1nc2ccccc2s1 [Compound 23, Benzyl-N-[(1S)-5-amino-1-(1,3-benzothiazole-2-carbonyl)pentyl]carbamate] | 100 to 250 nM | –
